Reference: US11331299B2, “Medicinal use of serrulatane diterpenes” (The University of Sydney, priority 2016, dated 2022)
Where two headings read alike, the source gives them in different places.

Test system: 280 human cancer cell lines
Assay: OncoPanel cell proliferation assay (10-day)
Format: cell-based
Details: Homo sapiens; for EC50: read-out: Cell Count EC50; for GI50: read-out: Cell Count GI50; for IC50: read-out: Cell Count IC50
[1] = C-4-II, C-4 II, Female GU - Cervix
[2] = C-33-A, C-33A, Female GU - Cervix
[3] = CAL-62, CAL-62, Endocrine - Thyroid
[4] = CCF-STTG1, CCF-STTG1, CNS - Glioma
[5] = CGTH-W-1, CGTH-W-1, Endocrine - Thyroid
[6] = CHP-212, CHP-212, CNS - Neuroblastoma
[7] = COLO-320-HSR, Colo 320 HSR, Colon
[8] = COLO-829, COLO 829, Skin (Melanoma)
[9] = COR-L105, COR-L105, Lung - NSCLC
[10] = Ca-Ski, Ca Ski, Female GU - Ovary

Structure (SMILES): CC(C)=CCC[C@H](CO)[C@@H]1CC[C@@H](C)c2c1cc(C)c(O)c2O [Compound 1, 7,8,18-trihydroxyserrulat-14-ene]
- EC50 (BT-474, BT474, Breast): 5.41 µM
- GI50 (BT-474, BT474, Breast): 4.95 µM
- IC50 (BT-474, BT474, Breast): 5.46 µM
- EC50 (BT-549, BT-549, Breast): 3.14 µM
- GI50 (BT-549, BT-549, Breast): 3.12 µM
- IC50 (BT-549, BT-549, Breast): 3.14 µM
- EC50 (BV-173, BV-173, Leukemia): 3.8 µM
- GI50 (BV-173, BV-173, Leukemia): 3.79 µM
- IC50 (BV-173, BV-173, Leukemia): 3.8 µM
- EC50 (BXPC-3, BxPC-3, Pancreas): 3.29 µM
- GI50 (BXPC-3, BxPC-3, Pancreas): 3.29 µM
- IC50 (BXPC-3, BxPC-3, Pancreas): 3.3 µM
- EC50 (BeWo, Placenta): 9.06 µM
- GI50 (BeWo, Placenta): 8.92 µM
- IC50 (BeWo, Placenta): 9.06 µM
- EC50 (C32, Skin (Melanoma)): 2.11 µM
- GI50 (C32, Skin (Melanoma)): 1.81 µM
- IC50 (C32, Skin (Melanoma)): 2.11 µM
- EC50 [1]: 1.09 µM
- GI50 [1]: 1.09 µM
- IC50 [1]: 1.1 µM
- EC50 [2]: 7.18 µM
- GI50 [2]: 7.08 µM
- IC50 [2]: 7.18 µM
- EC50 (CA46, CA46, Lymphoma): 2.27 µM
- GI50 (CA46, CA46, Lymphoma): 2.26 µM
- IC50 (CA46, CA46, Lymphoma): 2.27 µM
- EC50 (CAKI-1, Caki-1, Kidney): 2.86 µM
- GI50 (CAKI-1, Caki-1, Kidney): 2.75 µM
- IC50 (CAKI-1, Caki-1, Kidney): 2.86 µM
- EC50 (CAKI-2, Caki-2, Kidney): 4.38 µM
- GI50 (CAKI-2, Caki-2, Kidney): 4.35 µM
- IC50 (CAKI-2, Caki-2, Kidney): 4.38 µM
- EC50 (CAL-27, Cal 27, Head and Neck): 2.16 µM
- GI50 (CAL-27, Cal 27, Head and Neck): 2.15 µM
- IC50 (CAL-27, Cal 27, Head and Neck): 2.16 µM
- EC50 [3]: 1.69 µM
- GI50 [3]: 1.69 µM
- IC50 [3]: 1.69 µM
- EC50 (CAMA-1, CAMA-1, Breast): 3.51 µM
- GI50 (CAMA-1, CAMA-1, Breast): 3.4 µM
- IC50 (CAMA-1, CAMA-1, Breast): 3.51 µM
- EC50 (CAPAN-1, Capan-1, Pancreas): > 30 µM
- GI50 (CAPAN-1, Capan-1, Pancreas): > 30 µM
- IC50 (CAPAN-1, Capan-1, Pancreas): > 30 µM
- EC50 [4]: 5.79 µM
- GI50 [4]: 5.24 µM
- IC50 [4]: 6.6 µM
- EC50 (CCRF-CEM, CCRFCEM, Leukemia): 4.73 µM
- GI50 (CCRF-CEM, CCRFCEM, Leukemia): 4.71 µM
- IC50 (CCRF-CEM, CCRFCEM, Leukemia): 4.73 µM
- EC50 (CEM/C1, CEM-C1, Leukemia): 1.96 µM
- GI50 (CEM/C1, CEM-C1, Leukemia): 1.95 µM
- IC50 (CEM/C1, CEM-C1, Leukemia): 1.96 µM
- EC50 (CFPAC-1, CFPAC-1, Pancreas): 3.65 µM
- GI50 (CFPAC-1, CFPAC-1, Pancreas): 3.65 µM
- IC50 (CFPAC-1, CFPAC-1, Pancreas): 3.66 µM
- EC50 [5]: 1.2 µM
- GI50 [5]: 1.2 µM
- IC50 [5]: 1.2 µM
- EC50 (CHL-1, CHL-1, Skin (Melanoma)): 1.37 µM
- GI50 (CHL-1, CHL-1, Skin (Melanoma)): 1.36 µM
- IC50 (CHL-1, CHL-1, Skin (Melanoma)): 1.37 µM
- EC50 [6]: 1.43 µM
- GI50 [6]: 1.41 µM
- IC50 [6]: 1.43 µM
- EC50 (CML-T1, CML-T1, Leukemia): 1.93 µM
- GI50 (CML-T1, CML-T1, Leukemia): 1.93 µM
- IC50 (CML-T1, CML-T1, Leukemia): 1.93 µM
- EC50 (COLO 201, Colo 201, Colon): 0.92 µM
- GI50 (COLO 201, Colo 201, Colon): 0.92 µM
- IC50 (COLO 201, Colo 201, Colon): 0.92 µM
- EC50 (COLO 205, Colo 205, Colon): 1.31 µM
- GI50 (COLO 205, Colo 205, Colon): 1.31 µM
- IC50 (COLO 205, Colo 205, Colon): 1.31 µM
- EC50 (COLO 320DM, Colon): 3.2 µM
- GI50 (COLO 320DM, Colon): 3.18 µM
- IC50 (COLO 320DM, Colon): 3.2 µM
- EC50 [7]: 3.09 µM
- GI50 [7]: 3.13 µM
- IC50 [7]: 3.13 µM
- EC50 [8]: 0.68 µM
- GI50 [8]: 0.62 µM
- IC50 [8]: 0.68 µM
- EC50 (COR-L23, COR-L23, Lung - NSCLC): 7.18 µM
- GI50 (COR-L23, COR-L23, Lung - NSCLC): 7.14 µM
- IC50 (COR-L23, COR-L23, Lung - NSCLC): 7.18 µM
- EC50 [9]: 1.44 µM
- GI50 [9]: 1.42 µM
- IC50 [9]: 1.45 µM
- EC50 (CRO-AP2, CRO-AP2, Lymphoma): 5.72 µM
- GI50 (CRO-AP2, CRO-AP2, Lymphoma): 5.66 µM
- IC50 (CRO-AP2, CRO-AP2, Lymphoma): 5.72 µM
- EC50 [10]: 5.28 µM
- GI50 [10]: 5.24 µM
- IC50 [10]: 5.29 µM
- EC50 (Calu-1, Calu1, Lung - NSCLC): 3.1 µM
- GI50 (Calu-1, Calu1, Lung - NSCLC): 3.07 µM
- IC50 (Calu-1, Calu1, Lung - NSCLC): 3.1 µM
- EC50 (Calu-6, Calu6, Lung - NSCLC): 9.24 µM
- GI50 (Calu-6, Calu6, Lung - NSCLC): 8.59 µM
